Test results as given in ChEMBL document CHEMBL1151489, “N-(quinuclidin-3-YL)-1,8,-naphthalimides with 5-HT3 receptor antagonist and 5-HT4 receptor agonist properties” (Bioorg Med Chem Lett, 1993).

Columns and labels:
[1] = biological target: Serotonin 3 (5-HT3) receptor (Rattus norvegicus) (UniProt P35563+Q9JJ16); assay: In vivo 5-hydroxytryptamine 3 receptor antagonist activity by antagonism of the von Bezold-Jarisch (B-J) reflex in anesthetized rats, (i.v.); assay type: functional, organism-based
[2] = biological target: T1, Serotonin 3 (5-HT3) receptor (Rattus norvegicus, UniProt P35563+Q9JJ16); assay: Binding affinity to 5-hydroxytryptamine 3 receptor was determined in rat cerebro cortical membranes using [3H]quipazine.; assay type: cell membranes
T1 sequence (P35563 whole entry): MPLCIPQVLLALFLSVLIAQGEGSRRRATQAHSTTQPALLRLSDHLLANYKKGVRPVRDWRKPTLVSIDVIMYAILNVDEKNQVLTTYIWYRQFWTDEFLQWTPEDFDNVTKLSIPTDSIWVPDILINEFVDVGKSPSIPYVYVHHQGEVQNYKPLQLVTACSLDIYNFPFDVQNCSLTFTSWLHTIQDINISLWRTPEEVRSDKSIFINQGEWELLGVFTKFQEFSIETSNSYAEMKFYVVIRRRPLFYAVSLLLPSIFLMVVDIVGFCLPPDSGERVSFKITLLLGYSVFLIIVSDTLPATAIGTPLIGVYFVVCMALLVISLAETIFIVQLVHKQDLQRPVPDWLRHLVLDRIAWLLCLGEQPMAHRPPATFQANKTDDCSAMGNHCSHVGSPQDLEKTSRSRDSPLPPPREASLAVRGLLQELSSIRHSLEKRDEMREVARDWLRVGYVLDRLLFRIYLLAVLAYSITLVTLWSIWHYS
T1 sequence (Q9JJ16 whole entry): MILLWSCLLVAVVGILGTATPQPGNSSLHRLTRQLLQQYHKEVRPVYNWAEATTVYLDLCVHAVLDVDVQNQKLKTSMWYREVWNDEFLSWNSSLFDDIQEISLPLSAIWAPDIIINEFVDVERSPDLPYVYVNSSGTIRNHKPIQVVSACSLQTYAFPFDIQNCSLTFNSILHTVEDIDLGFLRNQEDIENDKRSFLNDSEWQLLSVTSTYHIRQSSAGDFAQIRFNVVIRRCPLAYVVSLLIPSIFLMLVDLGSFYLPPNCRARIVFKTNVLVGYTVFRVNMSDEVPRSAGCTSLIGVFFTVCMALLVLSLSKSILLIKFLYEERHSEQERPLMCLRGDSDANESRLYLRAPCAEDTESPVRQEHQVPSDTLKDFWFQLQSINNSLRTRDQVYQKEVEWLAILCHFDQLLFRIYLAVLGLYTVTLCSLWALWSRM

[3] = biological target: 5-hydroxytryptamine receptor 4 (Rattus norvegicus, UniProt Q62758); assay: 5-hydroxytryptamine 4 receptor agonist activity in the rat esophageal muscularis mucosae; assay type: functional
Chain of 5-hydroxytryptamine receptor 4 (Q62758 whole entry): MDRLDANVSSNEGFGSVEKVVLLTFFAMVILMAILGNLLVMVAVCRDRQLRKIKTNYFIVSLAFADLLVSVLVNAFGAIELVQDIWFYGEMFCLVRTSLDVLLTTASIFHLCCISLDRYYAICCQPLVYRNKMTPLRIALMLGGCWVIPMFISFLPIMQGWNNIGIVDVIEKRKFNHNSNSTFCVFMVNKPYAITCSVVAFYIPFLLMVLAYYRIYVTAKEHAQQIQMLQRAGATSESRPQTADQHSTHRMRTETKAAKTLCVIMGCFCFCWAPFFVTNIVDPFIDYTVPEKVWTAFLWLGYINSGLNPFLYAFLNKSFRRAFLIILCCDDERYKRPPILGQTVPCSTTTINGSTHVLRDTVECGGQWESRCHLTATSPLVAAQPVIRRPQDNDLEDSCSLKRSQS

[4] = biological target: 5-hydroxytryptamine receptor 4 (Rattus norvegicus) (UniProt Q62758); assay: lntrinsic activity relative to 5-HT receptor; assay type: functional
Chain of 5-hydroxytryptamine receptor 4 (Rattus norvegicus) (Q62758 whole entry): as above

Row | SMILES | Inhibitory dose (ID50) [1] | Ki [2] | EC50 [3] | Activity [4]
1 | Nc1c(Cl)cc2c3c(cccc13)C(=O)N([C@H]1CN3CCC1CC3)C2=O | 0.0045 mg/kg | 0.794 nM | > 1000 nM | 
2 | COc1cc(N)c(Cl)cc1C(=O)N[C@H]1CN2CCC1CC2 [(R)ZACOPRIDE] |  |  | 501 nM | 0.9
3 | NCCc1c[nH]c2ccc(O)cc12 |  |  |  | 1
4 | CN1CCC(N2C(=O)c3cccc4c(N)c(Cl)cc(c34)C2=O)CC1 | 0.288 mg/kg | 39.8 nM | 31.6 nM | 0.9
5 | Nc1c(Cl)cc2c3c(cccc13)C(=O)N([C@@H]1CN3CCC1CC3)C2=O | 0.077 mg/kg | 10 nM | 12.6 nM | 0.8
6 | COc1cc(N)c(Cl)cc1C(=O)N[C@@H]1CN2CCC1CC2 |  |  | 63.1 nM | 0.9
